Test results published in US20230293504A1, “TARGETING SUCNR1 TO REDUCE NEUROINFLAMMATION” (New York University, priority 2022, published 2023).

What was measured:
[1] = mice; succinate IP daily (4 mM/kg) for 4 weeks vs PBS
Procedure: FIG. 3. […] Mice received daily intraperitoneal (IP) injection with PBS or Succinate (4 mM/kg) for 4 weeks before sample collection. […] B. Alpha Diversity measured by the Observed number of ASVs, and Phylogenetic diversity index for oral swab samples. C. […] D. Network plot generated in Cytoscape 3.8.2. The small gray dots represent ASVs, the white circles represent WT samples, the yellow triangles represent WT_Suc samples. Edges represent the interaction of sample and ASV are colored based on sample type.

Fusobacterium nucleatum = tested on: Fusobacterium nucleatum
Procedure: FIG. 5. Fusobacterium nucleatum growth and virulence gene expression. A. F. nucleatum growth in media supplemented with indicated succinate concentrations shown as optical density measures over time (n=3, SEM). Different letters indicate statistically different from one another (ANOVA, p<0.05 by post-hoc Tukey's). B Relative expressions of virulence genes of F. nuleactum in 100 uM of succinate as determine by RT-PCR. (mean±SEM. ** p<0.01, * p<0.05).

SUCNR1 [2] = target: T1, SUCNR1 (Mus musculus, UniProt Q99MT6); test: Ligature plus F. nucleatum induced periodontitis in mice, topical 7a gel formulation (FIG. 11); assay type: in vivo
T1 construct: endogenous in cells; host or cells: live mice; C57/B6 is stated for the periodontitis model, and no strain is stated for the LPS model
T1 sequence (Q99MT6 1-317): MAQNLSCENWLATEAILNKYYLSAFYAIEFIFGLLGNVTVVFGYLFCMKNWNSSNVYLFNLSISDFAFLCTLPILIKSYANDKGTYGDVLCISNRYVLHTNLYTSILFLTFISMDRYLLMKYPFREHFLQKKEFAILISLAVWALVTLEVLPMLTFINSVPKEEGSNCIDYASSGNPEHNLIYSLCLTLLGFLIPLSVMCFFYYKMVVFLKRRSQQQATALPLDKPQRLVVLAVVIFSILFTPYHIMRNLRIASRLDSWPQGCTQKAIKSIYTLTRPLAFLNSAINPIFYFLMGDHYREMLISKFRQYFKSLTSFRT
Procedure: FIG. 11. Targeting SUCNR1 suppressed periodontitis and neuroinflammation. A. Study design. Periodontitis was induced in 14-week-old mice with a 6-0 silk ligature (Roboz Surgical Instrument Co., MD, USA) around the maxillary right side second molar. The ligature were kept in place for 5 days before removal. Sterile swabs soaked in 100 μl of 2.5×10^9/ml F. nucleatum in PBS and inoculated into mice around the ligature affected gingival tissues for 30 seconds. Inoculations were performed twice a week for four weeks. Mice were randomly assigned to receive 3 μl vehicle or 7a gel formulation every other day by topical application. B. Representative μCT images; C. The distance between CEJ to alveolar bone crest. D. IL-1β mRNA levels in the gingivae around the ligature site. E. Serum IL-1β levels. *p<0.05, ** p<0.01, *** p<0.001).
A novel mechanism connecting chronic peripheral inflammation and neuroinflammation. […] Inflammation was induced in 14-week-old C57/B6 mice by placing a ligature on the 2nd maxillary molar for 5-days plus twice/week inoculations of a key periodontal pathogen Fusobacteria nucleatum (Fn) for 4-weeks (FIG. 1A). […] This local inflammation was accompanied with the induction of neuroinflammation evidenced by the activation of microglia (FIG. 1D) and increased IL1β levels in hippocampus, cortex and cerebellum (FIG. 1E-G).
Six in situ gel formulations (ISGs) were produced by varying polymer concentration, changing the hydrophobicity of the solvent system, and use of different plasticizers (such as PEG200). All these ISGs were analyzed by FT-IR/ATR and HPLC assay for drug-polymer compatibility. In vitro drug release experiments were performed to assess the profile of sustained release with controlled initial burst release. One gel formulation was chosen to treat periodontitis animals in-vivo at 1 μg/10 g body weight three times/week (FIG. 11).
To determine if succinate receptor 1 inhibitors could reduce inflammation, succinate receptor 1 inhibitors were administered to mice. In this study (FIG. 11), mice with periodontal disease were used because of the resulting neuroinflammation from the periodontal disease. Topical application of POC7a gel formulation was administered at 1 μg/10 g body weight three times/week.

SUCNR1 [3] = target: T1, SUCNR1; test: LPS-induced neuroinflammation in mice, oral gavage of 7a (FIG. 16); assay type: in vivo; details: LPS-treated mice
Procedure: FIG. 16. […] A. Experimental design and treatment regime. 12-week-old male mice were randomly divided into 3 groups to receive inflammation induction (LPS) and treatment (7a) at indicated timepoints. PBS was used as the control solution to LPS and 20% DMSO in PBS (vehicle) was used as the control solution to 7a. The RNA samples were collected in TRIZol and extracted after perfusion. TNFα and IL1β mRNA levels were measured by Realtime PCR using specific primers and normalized to β-actin. B. Cerebellum, C. Hippocampus and D. Cortex. (* p<0.05. ** p<0.005, *** p<0.0005, **** p<0.0001 One-way ANOVA with post-hoc Tukey test).
Targeting SUCNR1 with topical 7a application reduced periodontitis as well as the associated neuroinflammation in mice. […] Thus, mice were pretreated 7a or vehicle through oral gavage 30 minutes before giving LPS intraperitoneally to induce neuroinflammation. The administration of 7a at 8 hours and 16 hours was repeated after the first dose. The mouse blood samples were collected through cardiac puncture at 24 hours (FIG. 16A). Immediately afterward, PBS was used to perfuse the mice to minimize the impact of blood cells to the gene expression of the brain tissues. The brain tissue samples were collected and the cerebellum, hippocampus, and cortex were micro-dissected and processed for RNA extraction and gene expression analysis.
The 7a solution was prepared as follows. 100 mM 7a stock solution was prepared using DMSO. Then the 7a stock solution was further diluted with PBS to become 20 mM 7a working solution and used for oral gavage to mice. DMSO in PBS (at 20% v/v) was used as vehicle. Based on the animals' body weight, 25 gram mice will receive 100 μL gavage volume) 7a working solution or vehicle. The treatment dose of 7a is 80 μmol/kg.

[4] = mice with periodontitis, topical gel
[5] = 7a oral gavage 80 μmol/kg, 3 doses, mRNA at 24 hours

Row | SMILES | dysbiosis in the oral microbiota (alpha and beta diversity) [1] | serum IL-1β levels [1] | expression of virulence factors (Hemin receptor, Hemolysin, Hemolysin-related protein, Lys R Family transcriptional regulator) (Fusobacterium nucleatum; 100 uM of succinate, RT-PCR) | F. nucleatum growth (optical density) (Fusobacterium nucleatum; media supplemented with succinate) | IL1β levels in cerebellum tissues (SUCNR1 [2]; [4]) | IL1β levels in hippocampal tissues (SUCNR1 [2]; [4]) | systemic IL1β levels in the serum (SUCNR1 [2]; [4]) | local IL1β levels in the gingiva (SUCNR1 [2]; mice with periodontitis, topical gel, mRNA around the ligature site) | periodontitis (μCT, distance between CEJ to alveolar bone crest) (SUCNR1 [2]; mice, ligature + F. nucleatum, oral topical gel formulation every other day) | IL1β expression in the cerebellum (SUCNR1 [3]; [5]) | IL1β expression in the hippocampus (SUCNR1 [3]; [5]) | TNFα expression in the cerebellum (SUCNR1 [3]; [5]) | TNFα expression in the cortex (SUCNR1 [3]; [5]) | TNFα expression in the hippocampus (SUCNR1 [3]; [5]) | neuroinflammation (SUCNR1 [3]; oral gavage)
1 | O=C(O)CCC(=O)O [succinate] | increased | increased | elevated | elevated | – | – | – | – | – | – | – | – | – | – | –
2 | CNC(=O)Cc1ccc(-c2ccc3cccnc3n2)cc1 [7a] | – | – | – | – | significant reduction | significant reduction | reduced | reduced | inhibited periodontitis | less induction | less induction | less induction | reduced | less induction | reduced neuroinflammation
